From patent publication US20020137929A1, “1 - (3-heterocyclylphenyl) isothiourea, -isourea, -guanidine and -amidine herbicidal agents” (Intellectual Property Department, BASF Aktiengesellschaft, priority 1998, published 2002)

Experiments:
[1] = tested on: GALAP (Galium); experiment: Preemergence herbicidal evaluation; type: in vivo, Galium aparine; conditions: rated 4-5 weeks after treatment
Outline: (§1)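 Scores use a 0–9 visual scale covering stand, vigor, malformation, size and chlorosis relative to controls, rated four to five weeks after treatment. Before emergence, soil-planted seeds were sprayed with compound in aqueous acetone at roughly 0.0156–0.500 kg/ha and held in the greenhouse.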

[2] = tested on: ECHCG (Barnyardgrass); experiment: Preemergence herbicidal evaluation; type: in vivo, Echinochloa crus-galli; conditions: rated 4-5 weeks after treatment
Outline: as §1

[3] = tested on: ORYSAT (Rice, Tebonnet); experiment: Rice tolerance to post-transplant applications, flooded paddy conditions (Table IV); type: in vivo, Oryza sativa, (L.) Tebonnet; conditions: in vivo
Outline: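 Injury ratings (0–9 scale covering stand, vigor, malformation, size, chlorosis and overall appearance versus control) were made three to four weeks after treatment. Test material, about 0.0313 to 0.500 kg/ha a.i. in 50/50 v/v aqueous/acetone, was added to flood water 1.5 to 3 cm deep over 3 to 5 cm weeds and 1.5 to 2.5 leaf rice.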

[4] = tested on: GLXMAW (Soybean, Williams); experiment: Preemergence herbicidal evaluation; type: in vivo, Glycine max, (L.) Merr. cv Williams; conditions: rated 4-5 weeks after treatment
Outline: as §1

[5] = tested on: MOOVA (Monochoria); experiment: Postemergence weed control under flooded paddy conditions; type: in vivo, Monochoria vaginalis; conditions: postemergence weeds
Outline: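 Herbicidal effect is judged by eye on a 0–9 scale versus control, 3–4 weeks after dosing. Dosing is into flood water kept 1.5–3 cm over the soil, at about 0.0313–0.500 kg/ha in aqueous/acetone 50/50 v/v, on 3–5 cm weeds and 1.5–2.5-leaf rice seedlings.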

[6] = tested on: IPOHE (Morningglory, Ivyleaf); experiment: Postemergence herbicidal evaluation; type: in vivo, Ipomoea hederacea
Outline: (§2)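 Visual 0–9 rating versus control (stand, vigor, malformation, size, chlorosis, overall appearance), taken four to five weeks post-spray. Two-week-old seedlings received roughly 0.0156–0.500 kg/ha active in acetone/water (50/50) with 0.5% TWEEN 20 via nozzle at 40 psi.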

[7] = tested on: ORYSAT (Rice, Tebonnet); experiment: Rice tolerance to post-transplant applications, flooded paddy conditions (Table III); type: in vivo, Oryza sativa, (L.) Tebonnet; conditions: in vivo
Outline: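 Injury scored 0-9 by eye against untreated control, judging stand, vigor, malformation, size and chlorosis, three to four weeks after treatment. Compound in 50/50 aqueous/acetone, about 0.0313 to 0.500 kg/ha, was applied to paddy water (1.5 to 3 cm depth) three days after transplanting paired ten-day-old Tebonnet rice seedlings.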

[8] = tested on: CHEAL (Lambsquarters, Common); experiment: Postemergence herbicidal evaluation; type: in vivo, Chenopodium album
Outline: as §2

Compound | Preemergence herbicidal rating GALAP ([1]; rate 0.1250 kg/ha) | Preemergence herbicidal rating GALAP ([1]; rate 0.2500 kg/ha) | Preemergence herbicidal rating ECHCG ([2]; rate 0.1250 kg/ha) | Preemergence herbicidal rating ECHCG ([2]; rate 0.2500 kg/ha) | Herbicidal rating ORYSAT (rice tolerance) [3] | Preemergence herbicidal rating GLXMAW ([4]; rate 0.1250 kg/ha) | Preemergence herbicidal rating GLXMAW ([4]; rate 0.2500 kg/ha) | Postemergence herbicidal rating IPOHE ([6]; Rate 0.0158 kg/ha) | Postemergence herbicidal rating IPOHE ([6]; Rate 0.0315 kg/ha) | Postemergence herbicidal rating IPOHE ([6]; Rate 0.0630 kg/ha) | Postemergence herbicidal rating CHEAL ([8]; Rate 0.0158 kg/ha) | Postemergence herbicidal rating CHEAL ([8]; Rate 0.0315 kg/ha) | Postemergence herbicidal rating CHEAL ([8]; Rate 0.0630 kg/ha) | further results
Cn1c(C(F)(F)F)cc(=O)n(-c2cc(/N=C3/SC(CC(=O)O)C(=O)N3CC(=O)O)c(Cl)cc2F)c1=O (centres unmarked) [Compound 61, 2-{{2-Chloro-5-[3,6-dihydro-3-methyl-2,6-dioxo-4-(trifluoromethyl)-1(2H)-pyrimidinyl]-4-fluorophenyl}imino}-4-oxo-3,5-thiazolidinediacetic acid] | 0.0 | 0.0 | 0.0 | 0.0 | 0.0 | 0.0 | 1.0 | 1.0 | 2.0 | 1.0 | 0.0 | 0.0 | 0.0 | Herbicidal rating MOOVA ([5]; Rate 0.2500 kg/ha, rated 3 to 4 weeks after treatment): 0.0; ORYSAT herbicidal effect rating (rice tolerance) [7]: 0.0
C[C@@H](C(=O)O)N1C(=O)CS/C1=N/c1cc(-n2c(=O)cc(C(F)(F)F)n(C)c2=O)c(F)cc1Cl [Compound 51, 2-{{2-Chloro-5-[3,6-dihydro-3-methyl-2,6-dioxo-4-(trifluoromethyl)-1(2H)-pyrimidinyl]-4-fluoro-phenyl}imino}-α-methyl-4-oxo-3-thiazolidineacetic acid, L-] | 7.0 | 9.0 | 1.0 | 1.0 | 0.0 | 1.0 | 7.0 | 9.0 | 9.0 | 9.0 | 9.0 | 9.0 | 9.0 | Preemergence herbicidal rating GALAP ([1]; rate 0.0156 kg/ha): 0.0; Preemergence herbicidal rating GALAP ([1]; rate 0.0313 kg/ha): 0.0; Preemergence herbicidal rating GALAP ([1]; rate 0.0625 kg/ha): 5.0; Preemergence herbicidal rating ECHCG ([2]; rate 0.0156 kg/ha): 0.0; Preemergence herbicidal rating ECHCG ([2]; rate 0.0313 kg/ha): 0.0; Preemergence herbicidal rating ECHCG ([2]; rate 0.0625 kg/ha): 1.0; Preemergence herbicidal rating GLXMAW ([4]; rate 0.0156 kg/ha): 0.0; Preemergence herbicidal rating GLXMAW ([4]; rate 0.0313 kg/ha): 0.0; Preemergence herbicidal rating GLXMAW ([4]; rate 0.0625 kg/ha): 1.0; Herbicidal rating MOOVA ([5]; rate 0.0625 kg/ha, 3-4 weeks after treatment): 3.0; Herbicidal rating MOOVA ([5]; rate 0.1250 kg/ha, 3-4 weeks after treatment): 4.0; Herbicidal rating MOOVA ([5]; rate 0.2500 kg/ha, 3-4 weeks after treatment): 4.0; Herbicidal rating ORYSAT (rice tolerance) [7]: 0.0
